We go through twelve compounds from patent publication US5753789A, “Oligonucleotides containing L-nucleosides” (priority 1996, dated 1998).

Where two headings read alike, the source gives them in different places.

In data set [1] the test system is EBV. In words: Inhibitory effect of compounds on EBV (virus production in H1 cells, bioassay of EBV DP activity in Raji cells). In kind it is cell-based, Epstein-Barr virus. The note with it: for Therapeutic Index (CD50/ID90): CD50 in H1 cells / ID90 for EBV; for IC90: human gammaherpesvirus 4, Raji, 120 h, EBV, H1 cells treated for 5 days, bioassay, read-out: ID90 (the source's name). On the procedure:
(§1) H1 cells were maintained in […] growth for two days prior to the initiation of treatment. The cells were centrifuged at 600 g for 10 min. at room temperature to separate them from the medium containing pre-existing virus particles. The H1 cells were seeded in 24 well plates at a density of 1×10^5 cells per well in 2 ml of fresh medium with or without drug and incubated at 37° C. for 5 days. The medium containing virion was saved and used for evaluating the inhibitory effect of drugs on virus production and infectivity by use of a bioassay. The virion were pelleted from the cell free medium by centrifugation at 45,000 rpm for 90 min. in a SW-50 Ti rotor (Beckman). The virion were resuspended in 1 ml growth medium and then used to infect 1×10^6 Raji cells for 48 hours. Since the level of EBV DP activity in Raji cells post superinfection is proportional to the number of virions added, the EBV specific DP activity induced was able to be measured. The inhibitory drug effect was calculated by comparing the EBV DP activity to multiple dilution controls.
(§2) Inhibitory effect of compounds on EBV: The CD50 was performed by
and compared with controls. H1 cells were treated for 5 days and the
ID90 was determined by bioassay.

Data set [2] is described as follows: Cytotoxicity in H1 cells (cell count). The note with it: human. It is filed as cell-based. On the procedure: as §2
exposing H1 cells to different concentrations of the compounds in normal
growth medium at 37° C. for 72 hours; the cells were then counted
and compared with controls. H1 cells were treated for 5 days and the […]

Data set [3] can be described thus: Clearance of L-(-)-FMAU from liver after oral administration. The following applies: mice, 10 or 50 mg/kg. It is filed as in vivo. The method, then: (§3) The clearance of L-(-)-FMAU from the plasma and liver of mice after oral administration was evaluated. Mice were […] with L-(-)-FMAU which was tritium labeled (radiospecificity of […]).
(§4) FIG. 11 is a graph of the plasma concentration of L-(-)-FMAU in mice after oral administration over time, and FIG. 12 is a graph of the concentration of L-(-)-FMAU in mouse liver after oral administration over time (cross, 10 mg/kg administered bid (bi-daily) for 30 days prior to pharmacokinetic study and then study carried out on day thirty-one on administration of same concentration; dark circle, 50 mg/kg administered bid for 30 days prior to study and then study carried out on day thirty-one on administration of same concentration; open circle, 50 mg/kg administered for the first time on the first day of the study).
(§5) At the times indicated (see FIGS. […]) the mice were bled from their retro-orbital sinus using heparinized capillaries. The plasma was extracted with trichloroacetic acid and neutralized with freon/trioctylamine. Supernatants were directly counted and the concentration calculated.

The nature of data set [4]: Clinical chemistry of mouse plasma after L-(-)-FMAU treatment. The following applies: 10 or 50 mg/kg bid, thirty days. In kind it is in vivo. The method, then:
FIGS. 14-20 provide the clinical chemistry of mouse plasma after administration of L-(-)-FMAU at 10 mg/kg (three mice) or 50 mg/kg (three mice) bid for thirty days.

The nature of data set [5]: Clearance of L-(-)-FMAU from plasma after oral administration. The following applies: mice, 10 or 50 mg/kg. It is filed as in vivo. The method, then:
as §3, §4, §5

Data set [6] relates to HBV. Nature of the data set: Biological activity against HBV in 2.2.15 cells (HBV DNA, Southern analysis). It is filed as cell-based. The following applies: Hepatitis B virus, 144 h, read-out: Anti-HBV Activity ID50. On the procedure: Human hepatoma cells with HBV (2.2.15 cells) were used in the assay. These cells were grown to confluence in minimal essential medium with 10% fetal bovine serum. The media was changed at 3-day intervals. At confluence the treatment with the drugs was initiated and then continued for three days. Another addition of the same concentration of the drug was given at this point after removal of the media from the cultures and cultures maintained for an additional period of 3 days. The medium after the 6-day treatment was harvested and the viral particles precipitated by the polyethylene glycol method. The particles were subsequently digested and then processed for Southern analysis. The blots were hybridized to an HBV-specific probe and viral DNA amounts assessed in comparison to DNA levels from cultures not treated with the drugs. The genomic DNA was digested with Hind III and subjected to Southern analysis. Levels of the episomal DNA were determined in relation to the integrated HBV DNA. The drug concentrations that cause 50% inhibition of the DNA (ID50) as compared to the controls were calculated.

Data set [7] relates to mitochondrial DNA content in H1 cells. Nature of the data set: Mitochondrial DNA content of H1 cells (slot blot assay). In kind it is cell-based, human. The note with it: 1 mM, 6 days. On the procedure:
as §1
Slot Blot Assay--The amount of mitochondrial DNA was measured by the slot blot method (2). […] The amount of mitochondrial DNA in the treated and non-treated H1 cells was quantified by densitometer (LKB Ultroscan XL).

Data set [8] can be described thus: Toxicity in BDF1 female mice (body weight over thirty days). It is filed as in vivo. The note with it: 10 mg/kg and 50 mg/kg bid. The method, then: FIG. 13a illustrates the change in body weight over thirty days of control BDF1 female mice. FIGS. 13b and 13c illustrate the change in body weight over thirty days of BDFI female mice dosed with 10 mg/kg (13b) and 50 mg/kg (13c) bid of L-(-)-FMAU. The body weight presented represents the mean and standard deviation of that of five to seven mice.

Setting [9] is: 37° C., 72 hours, Table 2, read-out: CD50.
[10] abbreviates: Table I, read-out: (H1 cells) CD50.

With `O=c1[nH]c(=O)n([C@@H]2O[C@H](CO)[C@@H](O)[C@@H]2F)cc1I` [D-FIAU], in data set [1], the “Therapeutic Index (CD50/ID90)” value is given as 40 and the IC90 turned out to be 0.5 ± 0.05 µM. The CC50 at 72 h in data set [2] (setting [9]) came out at 20 ± 4 µM.

With `Cc1cn([C@H]2O[C@@H](CO)[C@H](O)[C@H]2F)c(=O)[nH]c1=O` [L-FMAU, 2'-fluoro-5-methyl-β-L-arabinofuranosyluridine], in data set [3], the Clearance from liver result is “substantially cleared from both plasma and liver after four hours”; the “Time of peak concentration in liver” value is “approximately one”. In data set [4], the “ALT (SGPT) in mouse plasma” value was “With the exception of mouse 50-2 (for both SGOT and SGPT) and mouse 10-2 (for SGOT only), the enzyme levels of the treated mice are not different from those of the control mice”; the “AST (SGOT) in mouse plasma” value is “With the exception of mouse 50-2 (for both SGOT and SGPT) and mouse 10-2 (for SGOT only), the enzyme levels of the treated mice are not different from those of the control mice”; the “Creatinine in mouse plasma” value is given as “With the exception of mouse 50-2, the creatinine levels of the treated mice are not different from those of the control mice”; the “Lactic acid in mouse plasma” value is recorded as “not significantly differnt from those of the control mice”. For the same compound, the “Lactic dehydrogenase in mouse plasma” value in data set [4] is recorded as “not significantly differnt from those of the control mice”. Also, the “Alkaline phosphatase in mouse plasma” value in data set [4] (normal human level 30-114 U/L) is on record as “somewhat higher than the normal human level”. Further, the “Total bilirubin in mouse plasma” value in data set [4] (normal human range less than 1.2 mg/dL) was “fall within the normal human range”. In data set [5], the Clearance from plasma entry was “substantially cleared from both plasma and liver after four hours”; the “Time of peak concentration in plasma” value was “approximately one”. Besides, the IC50 in data set [6] turned out to be 0.1 µM. Further, the “Therapeutic Index (CD50/ID90)” value in data set [1] turned out to be 200. Also, the “Inhibition of mitochondrial DNA content” value in data set [7] is reported as “No inhibition of mitochondrial DNA content in H1 cells was observed”. Further, in data set [8], the “Change in body weight” value is recorded as “did not appear to significantly affect the weight of the mice over thirty days” and the Tolerability result is reported as “well tolerated”. Moreover, the CC50 at 72 h in data set [2] (setting [10]) worked out at 1000 µM.

Take `Nc1nc2c(ncn2CCC(CO)CO)c(=O)[nH]1` [PCV]: the “Therapeutic Index (CD50/ID90)” value in data set [1] is 25. Besides, in data set [2] (setting [9]), the CC50 at 72 h amounted to 500 ± 55 µM.

In the case of `Nc1nc(=O)n([C@@H]2O[C@H](CO)[C@@H](O)[C@@H]2F)cc1I` [D-FIAC], in data set [1], the “Therapeutic Index (CD50/ID90)” value is reported as 25 and the IC90 stood at 5 ± 0.5 µM. Besides, in data set [2] (setting [9]), the CC50 at 72 h amounted to 125 ± 15 µM.

In the case of `CCc1cn([C@H]2O[C@@H](CO)[C@H](O)[C@H]2F)c(=O)[nH]c1=O` [L-FEAU, 2'-fluoro-5-ethyl-β-L-arabinofuranosyluridine], in data set [1], the “Therapeutic Index (CD50/ID90)” value worked out at 15 and the IC90 is 60 ± 11 µM. In addition, in data set [2] (setting [10]), the CC50 at 72 h was 900 µM.

With `Nc1nc(=O)n([C@H]2O[C@@H](CO)[C@H](O)[C@H]2F)cc1I` [L-FIAC, 2'-fluoro-5-iodo-β-L-arabinofuranosylcytosine], in data set [1], the “Therapeutic Index (CD50/ID90)” value was greater than 40 and the IC90 was less than 10 µM. The CC50 at 72 h in data set [2] (setting [9]) came to 400 ± 35 µM.

`O=C(O)P(=O)(O)O` [PFA]: the “Therapeutic Index (CD50/ID90)” value in data set [1] was found to be 16. The CC50 at 72 h in data set [2] (setting [9]) worked out at 1200 ± 100 µM.

For the compound `CCc1cn([C@@H]2O[C@H](CO)[C@@H](O)[C@@H]2F)c(=O)[nH]c1=O` [D-FEAU], the “Therapeutic Index (CD50/ID90)” value in data set [1] is reported as 2000. In addition, in data set [2] (setting [10]), the CC50 at 72 h worked out at 2000 µM.

With `Nc1nc2c(ncn2COCCO)c(=O)[nH]1` [ACV], the “Therapeutic Index (CD50/ID90)” value in data set [1] amounted to 20. Further, in data set [2] (setting [9]), the CC50 at 72 h is 1000 ± 75 µM.

Take `Nc1nc2c(ncn2COC(CO)CO)c(=O)[nH]1` [DHPG]: the “Therapeutic Index (CD50/ID90)” value in data set [1] is 15. In data set [2] (setting [9]), the CC50 at 72 h came to 75 ± 6 µM.

Take `O=c1[nH]c(=O)n([C@H]2O[C@@H](CO)[C@H](O)[C@H]2F)cc1I` [L-FIAU, 2'-fluoro-5-iodo-β-L-arabinofuranosyluridine]: in data set [1], the “Therapeutic Index (CD50/ID90)” value amounted to 12 and the IC90 came to 20 ± 4 µM. The CC50 at 72 h in data set [2] (setting [9]) stood at 240 ± 20 µM.

Take `Cc1cn([C@@H]2O[C@H](CO)[C@@H](O)[C@@H]2F)c(=O)[nH]c1=O` [D-FMAU]: the IC50 in data set [6] was found to be 2 µM. The “Therapeutic Index (CD50/ID90)” value in data set [1] came out at 50. In data set [2] (setting [10]), the CC50 at 72 h was 50 µM.
